Assay results reported in the SangsterLogP compilation.

logP	Compound
1.53	COC(=O)NC1=NCC(c2ccccc2F)N1C (stereo not given)
0.84	CCOC(=O)NC1=NCC(c2ccc(CO)cc2)N1C (stereo not given)
3.6	Cc1cc2n(c1C(=O)c1ccc(Cl)cc1)CCC2C(=O)O (stereo not given)
1.9	CCOC(=O)NC1=NCC(c2ccccc2)N1C (stereo not given)
0.28	COC(=O)NC1=NCC(c2ccc(CO)cc2)N1C (stereo not given)
1.49	COC(=O)NC1=NCC(c2ccc(F)cc2)N1 (stereo not given)
1.39	COC(=O)NC1=NCC(c2cccc(OC)c2)N1C (stereo not given)
1.21	COC(=O)NC1=NCC(c2ccc3c(c2)OCO3)N1 (stereo not given)
3.33	Cc1ccc(C(=O)c2c(C)cc3n2CCC3C(=O)O)cc1 (stereo not given)
1.9	CCOC(=O)NC1=NCC(c2ccc(F)cc2)N1C (stereo not given)
1.9	COC(=O)NC1=NCC(c2cccc(Cl)c2)N1 (stereo not given)
2.6	COC(=O)NC1=NCC(c2ccc(C(C)C)cc2)N1 (stereo not given)
3.63	CCc1cc2n(c1C(=O)c1ccc(F)cc1)CCC2C(=O)O (stereo not given)
2.85	Cc1cc2n(c1C(=O)c1ccccc1)CCC2C(=O)O (stereo not given)
0.74	COC(=O)NC1=NCC(c2ccc(C=O)cc2)N1C (stereo not given)
1.84	CCOC(=O)NC1=NCC(c2cccc(F)c2)N1C (stereo not given)
1.41	COC(=O)NC1=NCC(c2cccc(F)c2)N1 (stereo not given)
2.17	COC(=O)NC1=NCC(c2ccc(Cl)cc2)N1C (stereo not given)
2.91	COc1ccc(C(=O)c2c(C)cc3n2CCC3C(=O)O)cc1 (stereo not given)
3.31	CCc1cc2n(c1C(=O)c1ccccc1)CCC2C(=O)O (stereo not given)
1.55	COC(=O)NC1=NCC(c2ccccc2)N1 (stereo not given)
1.38	COC(=O)NC1=NCC(c2ccc(C(=O)OC)cc2)N1C (stereo not given)
2.45	CCOC(=O)NC1=NCC(c2cccc(Cl)c2)N1C (stereo not given)
2.25	COC(=O)NC1=NCC(c2ccc(C(F)(F)F)cc2)N1 (stereo not given)
2.54	COC(=O)NC1=NCC(c2ccc3ccccc3c2)N1 (stereo not given)

More lines, now with the values behind:

Compound	logP
O=c1c2ncn(COCCO)c2nc2[nH]c(-c3ccc4ccccc4c3)cn12	2.09
COC(=O)NC1=NCC(c2ccccc2Cl)N1C (stereo not given)	2.08
NCCCCOc1cccc2ccccc12	1.25
CCOC(=O)NC1=NCC(c2ccccc2Cl)N1C (stereo not given)	2.4
NCCCCCCOc1cccc2ccccc12	2.06
CCOC(=O)NC1=NCC(c2cccc(C)c2C)N1C (stereo not given)	2.57
COC(=O)NC1=NCC(c2cccc(Cl)c2)N1C (stereo not given)	2.1
COC(=O)NC1=NCC(c2ccccc2)N1C (stereo not given)	1.57
COC(=O)NC1=NCC(c2ccccc2C)N1C (stereo not given)	1.85
CN(C)CCOc1cccc2ccccc12	2.12
NCCCCCCCCOc1cccc2ccccc12	3.14
COC(=O)NC1=NCC(c2ccccc2SC)N1C (stereo not given)	2.08
CN(C)CCCCOc1cccc2ccccc12	2.05
CN(C)CCCOc1cccc2ccccc12	1.99
COC(=O)NC1=NCC(c2ccccc2Br)N1 (stereo not given)	1.85
COC(=O)NC1=NCC(c2cc(Br)ccc2Br)N1C (stereo not given)	2.77
NCCCCCOc1cccc2ccccc12	1.59
COC(=O)NC1=NCC(c2cccc(C)c2)N1C (stereo not given)	1.85
NCCCOc1cccc2ccccc12	1.04
NCCOc1cccc2ccccc12	1.15
